# According to PubChem BioAssay AID1963858 (Molecular Pharmacology Branch, DTP, NCI, 2024):
# pIC50: −log10 of the molar value.
# System: HOP-62 multicell spheroids with HUVEC/MSC, viability
# Assay: Anticancer human tumor HOP-62 cell line growth inhibition [KRAS2];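 note: viability read after a week of compound exposure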;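 for viability, T/C: 100% = DMSO vehicle-treated spheroids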
# Settings: for pIC50: curve of first compound; for viability, T/C: stronger effect = lower value
# From the text: Multicellular complex tumor spheroid response to RAS pathway inhibitors in combination with a targeted agents in patient-derived cell lines with oncogenic KRAS variants from multiple cancer types
# A high-throughput screen of multi-cell type tumor spheroids was designed to identify active combinations of targeted small molecules and KRAS pathway inhibitors. Complex spheroids include a stromal component modeled by human endothelial cells (HUVEC) and fibroblasts modeled by human mesenchymal stem cells (MSCs). The concentration ranges selected for each drug and investigational agent were based upon clinically achievable concentrations if the clinical Cmax of the agent was known.
# Compounds. The drugs and investigational agents: BI-3406 (NSC825286), BAY-293 (NSC824723), batoprotafib (TNO155; NSC825523), sotorasib (AMG 510; NSC818433), MRTX1257 (NSC819558), elimusertib (BAY 1895344; NSC800525), molibresib (GSK525762; NSC774829), temuterkib (LY3214996; NSC803410), venetoclax (NSC766270), alisertib (NSC759677), olaparib (NSC753686), talazoparib (NSC767125), erdafitinib (NSC781556), ipatasertib (NSC767898), cabozantinib (NSC761068), nintedanib (NSC756659), abemaciclib (NSC768073), docetaxel (NSC628503), trametinib (NSC758246), and sapanisertib (NSC764658) were obtained from the National Cancer Institute (NCI) Developmental Therapeutics Program Chemical Repository. The FDA-approved anticancer drug set is available from the Developmental Therapeutics Program. […] The stock solutions were prepared in dimethyl sulfoxide (DMSO, Sigma-Aldrich, St. Louis, MO, cat. D2650) at 800-fold the tested concentration and stored at -70 degrees C prior to their use. All drugs and investigational agents were tested over a range starting from a high concentration at or near the clinical Cmax and decreasing in half-log increments. If the clinical Cmax for an agent had not been determined, the highest concentration tested was 10 microM.
# Cell Culture. All cells were maintained in an incubator at 37 degrees C and 5% CO2 with 95% humidity. The PDC lines were cultured according to standard operating procedures established by the NCI PDMR (https://pdmr.cancer.gov/sops/default.htm). Briefly, all PDCs were thawed and cultured in Matrigel-coated flasks prepared with a working solution of 1X Ham's F-12 nutrient mix, without supplementation (Invitrogen, Waltham, MA, cat. 11765054), 100 U/mL penicillin-streptomycin (Invitrogen, cat. 15140122), and 2.5% Matrigel (Corning Inc., Corning, NY, cat. 354248) for the first three passages. All PDCs were cultured in complete DMEM/F-12 media containing advanced DMEM/F-12 (Invitrogen, cat. 12634028), 4.9% defined fetal bovine serum, heat inactivated (HyClone Laboratories Inc., Logan, UT, cat. SH30070.03HI), 389 ng/mL hydrocortisone (Sigma-Aldrich, cat. H4001), 9.7 ng/mL human EGF recombinant protein (Invitrogen, cat. PHG0313), 23.4 microg/mL adenine (Sigma-Aldrich, cat. A2786), 97.3 U/mL penicillin-streptomycin (Invitrogen, cat. 15140122), 1.9 mM L-glutamine (Invitrogen, cat. 25030081), and 9.7 microM Y-27632 dihydrochloride (Tocris Bioscience, Bristol, United Kingdom, cat. 1254). The PDCs were cultured in complete DMEM/F12 media without 9.7 microM Y-27632 dihydrochloride for at least two passages prior to the screen. The established cell line HOP-62 was cultured in RPMI 1640 medium, HEPES (Invitrogen, cat. 22400105) with 10% defined fetal bovine serum (HyClone Laboratories Inc., cat. SH30070.03) and 2 mM L-glutamine (Invitrogen, cat. 25030081). The pooled donor HUVEC were cultured in endothelial cell growth medium 2 (PromoCell, Heidelberg, Germany, cat. C-22011) and the hMSC were cultured in mesenchymal stem cell growth medium 2 (PromoCell, cat. C-28009). For all experiments, HUVEC and hMSC were used at passages </=5, while the malignant cell lines were used at passages </=15. […]
# [1] = second compound 0.1 µM, first compound 0.01 µM
# [2] = second compound 0.1 µM, first compound 0.0316 µM
# [3] = second compound 0.1 µM, first compound 0.1 µM
# [4] = second compound 0.1 µM, first compound 0.316 µM
# [5] = second compound 0.1 µM, first compound 1 µM
# [6] = second compound 0.1 µM, first compound 3.16 µM
# [7] = second compound 0.316 µM, first compound 0.01 µM
# [8] = second compound 0.316 µM, first compound 0.0316 µM
# [9] = second compound 0.316 µM, first compound 0.1 µM
# [10] = second compound 0.316 µM, first compound 0.316 µM
# [11] = second compound 0.316 µM, first compound 1 µM
# [12] = second compound 0.316 µM, first compound 3.16 µM
# [13] = second compound 1 µM, first compound 0.01 µM
# [14] = second compound 1 µM, first compound 0.0316 µM
# [15] = second compound 1 µM, first compound 0.1 µM
# [16] = second compound 1 µM, first compound 0.316 µM
# [17] = second compound 1 µM, first compound 1 µM
# [18] = second compound 1 µM, first compound 3.16 µM
# [19] = second compound 3.16 µM, first compound 0.01 µM
# [20] = second compound 3.16 µM, first compound 0.0316 µM
# [21] = second compound 3.16 µM, first compound 0.1 µM
# [22] = second compound 3.16 µM, first compound 0.316 µM
# [23] = second compound 3.16 µM, first compound 1 µM
# [24] = second compound 3.16 µM, first compound 3.16 µM
# [25] = second compound 10 µM, first compound 0.01 µM
# [26] = second compound 10 µM, first compound 0.0316 µM
# [27] = second compound 10 µM, first compound 0.1 µM
# [28] = second compound 10 µM, first compound 0.316 µM
# [29] = second compound 10 µM, first compound 1 µM
# [30] = second compound 10 µM, first compound 3.16 µM
# [31] = second compound 0.1 µM, first compound 10 µM
# [32] = second compound 0.316 µM, first compound 10 µM
# [33] = second compound 1 µM, first compound 10 µM
# [34] = second compound 3.16 µM, first compound 10 µM
# [35] = second compound 10 µM, first compound 10 µM
SMILES,pIC50 (second compound 0.1 µM),pIC50 (second compound 0.316 µM),pIC50 (second compound 1 µM),pIC50 (second compound 3.16 µM),pIC50 (second compound 10 µM),"viability, T/C [2]","viability, T/C [3]","viability, T/C [4]","viability, T/C [5]","viability, T/C [6]","viability, T/C [8]","viability, T/C [9]","viability, T/C [10]","viability, T/C [11]","viability, T/C [14]","viability, T/C [15]","viability, T/C [20]","viability, T/C [21]","viability, T/C [26]","viability, T/C [27]",also measured
CC(=O)OC12COC1CC(O)C1(C)C(=O)C(O)C3=C(C)C(OC(=O)C(O)C(NC(=O)OC(C)(C)C)c4ccccc4)CC(O)(C(OC(=O)c4ccccc4)C21)C3(C)C (stereo not given) + C=CC(=O)N1CCN(c2nc(=O)n(-c3c(C)ccnc3C(C)C)c3nc(-c4c(O)cccc4F)c(F)cc23)C(C)C1,> 8.00,> 8.00,> 8.00,> 8.00,> 8.00,27.3%,26.8%,25.1%,25.2%,28.5%,23.9%,24.7%,27.3%,24.9%,23%,28%,25.4%,27%,26.9%,27.9%,"viability, T/C [1]: 24.3%; viability, T/C [7]: 29.5%; viability, T/C [12]: 31.1%; viability, T/C [13]: 29.4%; viability, T/C [16]: 27.8%; viability, T/C [17]: 30.2%; viability, T/C [18]: 30%; viability, T/C [19]: 32.8%; viability, T/C [22]: 35.1%; viability, T/C [23]: 32.5%; viability, T/C [24]: 33.1%; viability, T/C [25]: 28.1%; viability, T/C [28]: 29.9%; viability, T/C [29]: 30.8%; viability, T/C [30]: 34.6%"
CN(C)C/C=C/C(=O)Nc1cc2c(Nc3ccc(F)c(Cl)c3)ncnc2cc1O[C@H]1CCOC1 + C=CC(=O)N1CCN(c2nc(=O)n(-c3c(C)ccnc3C(C)C)c3nc(-c4c(O)cccc4F)c(F)cc23)C(C)C1,< 7.00,< 7.00,< 7.00,< 7.00,7.72,54.4%,65.7%,,,,51.1%,58%,,,61.1%,62.4%,63.4%,54%,48.6%,42.3%,"viability, T/C (second compound 0.1 µM, first compound 0.000316 µM): 65.1%; viability, T/C (second compound 0.1 µM, first compound 0.001 µM): 69.1%; viability, T/C (second compound 0.1 µM, first compound 0.00316 µM): 67.8%; viability, T/C [1]: 58.9%; viability, T/C (second compound 0.316 µM, first compound 0.000316 µM): 79.5%; viability, T/C (second compound 0.316 µM, first compound 0.001 µM): 69.9%; viability, T/C (second compound 0.316 µM, first compound 0.00316 µM): 66%; viability, T/C [7]: 65%; viability, T/C (second compound 1 µM, first compound 0.000316 µM): 81.1%; viability, T/C (second compound 1 µM, first compound 0.001 µM): 80.5%; viability, T/C (second compound 1 µM, first compound 0.00316 µM): 61.9%; viability, T/C [13]: 69.8%; viability, T/C (second compound 3.16 µM, first compound 0.000316 µM): 71.5%; viability, T/C (second compound 3.16 µM, first compound 0.001 µM): 65.1%; viability, T/C (second compound 3.16 µM, first compound 0.00316 µM): 70.9%; viability, T/C [19]: 71.8%; viability, T/C (second compound 10 µM, first compound 0.000316 µM): 56.9%; viability, T/C (second compound 10 µM, first compound 0.001 µM): 51.1%; viability, T/C (second compound 10 µM, first compound 0.00316 µM): 54.5%; viability, T/C [25]: 52%"
COC(=O)c1ccc2c(C(=Nc3ccc(N(C)C(=O)CN4CCN(C)CC4)cc3)c3ccccc3)c(O)[nH]c2c1 + C=CC(=O)N1CCN(c2nc(=O)n(-c3c(C)ccnc3C(C)C)c3nc(-c4c(O)cccc4F)c(F)cc23)C(C)C1,> 7.50,> 7.50,> 7.50,> 7.50,> 7.50,40.2%,30.1%,25.5%,23.3%,24.8%,36.4%,29.9%,26.8%,25.7%,37.2%,32.5%,40.5%,31.5%,47%,36.2%,"viability, T/C [31]: 13%; viability, T/C [12]: 21.7%; viability, T/C [32]: 14.3%; viability, T/C [16]: 26.1%; viability, T/C [17]: 26.9%; viability, T/C [18]: 26.7%; viability, T/C [33]: 2.61%; viability, T/C [22]: 29.9%; viability, T/C [23]: 27.5%; viability, T/C [24]: 22.7%; viability, T/C [34]: 2.66%; viability, T/C [28]: 55.4%; viability, T/C [29]: 30.9%; viability, T/C [30]: 10.2%; viability, T/C [35]: 1.93%"
O=C(c1cc(Cc2n[nH]c(=O)c3ccccc23)ccc1F)N1CCN(C(=O)C2CC2)CC1 + C=CC(=O)N1CCN(c2nc(=O)n(-c3c(C)ccnc3C(C)C)c3nc(-c4c(O)cccc4F)c(F)cc23)C(C)C1,7.40,6.57,6.15,6.60,> 7.50,50.3%,47.2%,37.5%,35.6%,27.7%,64%,61.2%,45.5%,40.4%,59.3%,54.7%,58.9%,50.5%,52%,46.1%,"viability, T/C [31]: 27.4%; viability, T/C [12]: 37.6%; viability, T/C [32]: 29.3%; viability, T/C [16]: 53.2%; viability, T/C [17]: 49.8%; viability, T/C [18]: 40.8%; viability, T/C [33]: 31.6%; viability, T/C [22]: 48.3%; viability, T/C [23]: 47.8%; viability, T/C [24]: 42.1%; viability, T/C [34]: 37.4%; viability, T/C [28]: 48.8%; viability, T/C [29]: 46.7%; viability, T/C [30]: 43.2%; viability, T/C [35]: 36.8%"
